Laboratory results: patent US20260184710A1, “CASITAS B-LINEAGE LYMPHOMA PROTOONCOGENE B (CBL-B) DEGRADING COMPOUNDS AND ASSOCIATED METHODS OF USE” (Arvinas Operations, Inc., priority 2022, published 2026)

Molecular target: T1, Cbl-b (Homo sapiens, UniProt Q13191)
T1 construct: Cbl-b-HiBit KI Jurkat Cells were purchased from Promega; host or cells: Cbl-b-HiBiT knock-in Jurkat cells
Experiment: Cbl-b Degradation Method B (Nano-Glo HiBiT lytic detection)
Assay type: cell-based
Conditions: Cbl-b-HiBit KI Jurkat Cells, incubated at least 6-24 hours; for DC50: half maximal degradation, read-out: Cbl-b Degredation Method B IC50; for Dmax: maximum degradation observed, read-out: Cbl-b Degredation Method B Dmax (%)
Procedure, shortened: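 Cbl-b-HiBiT knock-in Jurkat cells (20,000/well) were treated after ~24 h plating with an 11-point 1:3 series for 6-24 h at 37° C. Remaining Cbl-b measured by Nano-Glo HiBiT lytic luminescence. DC50 and Dmax expressed as % of control.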

T1 sequence (Q13191 whole entry): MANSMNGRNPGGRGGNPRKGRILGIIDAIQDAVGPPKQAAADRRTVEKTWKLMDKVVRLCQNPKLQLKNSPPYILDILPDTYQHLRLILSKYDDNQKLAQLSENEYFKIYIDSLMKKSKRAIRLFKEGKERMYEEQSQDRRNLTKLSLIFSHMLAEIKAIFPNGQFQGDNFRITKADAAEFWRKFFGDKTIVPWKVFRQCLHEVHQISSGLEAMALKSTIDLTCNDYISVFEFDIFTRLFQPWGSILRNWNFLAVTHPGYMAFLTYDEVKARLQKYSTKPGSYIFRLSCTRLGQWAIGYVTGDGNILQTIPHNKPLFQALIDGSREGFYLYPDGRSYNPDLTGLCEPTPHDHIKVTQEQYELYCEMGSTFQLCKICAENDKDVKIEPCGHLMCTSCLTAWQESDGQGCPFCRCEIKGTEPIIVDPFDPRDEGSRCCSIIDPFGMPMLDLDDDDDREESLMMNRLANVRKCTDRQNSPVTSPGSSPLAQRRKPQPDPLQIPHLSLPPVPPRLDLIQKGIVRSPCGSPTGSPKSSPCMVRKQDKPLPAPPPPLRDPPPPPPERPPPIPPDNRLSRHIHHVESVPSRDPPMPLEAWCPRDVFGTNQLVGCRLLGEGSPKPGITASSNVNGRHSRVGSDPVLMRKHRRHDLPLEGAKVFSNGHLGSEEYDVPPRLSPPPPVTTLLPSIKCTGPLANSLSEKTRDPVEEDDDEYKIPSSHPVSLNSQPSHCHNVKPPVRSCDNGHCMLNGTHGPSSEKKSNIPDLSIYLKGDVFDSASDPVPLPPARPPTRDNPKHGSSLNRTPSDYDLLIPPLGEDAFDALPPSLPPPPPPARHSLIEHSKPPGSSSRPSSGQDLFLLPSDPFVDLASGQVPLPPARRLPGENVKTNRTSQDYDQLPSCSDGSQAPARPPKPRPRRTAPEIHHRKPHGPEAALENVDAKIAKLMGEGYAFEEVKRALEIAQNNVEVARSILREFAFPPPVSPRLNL

Structure (SMILES)	DC50	Dmax
CC1c2nc(N3CCC(O[C@H]4CC[C@H](CN5CCN(Cc6cc(C(F)(F)F)c7cn(-c8cccc(C9(Cc%10nncn%10C)CC9)c8)nc7c6)C(C)(C)C5)CC4)CC3)ccc2C(=O)N1C1CCC(=O)NC1=O (relative stereo) [Example 253, rel-3-[7-methyl-5-oxo-2-(4-{[(1r,4r)-4-[(3,3-dimethyl-4-{[2-(3-{1-[(4-methyl-4H-1,2,4-triazol-3-yl)methyl]cyclopropyl}phenyl)-4-(trifluoromethyl)-2H-indazol-6-yl]methyl}piperazin-1-yl)methyl]cyclohexyl]oxy}piperidin-1-yl)-5H,6H,7H-pyrrolo[3,4-b]pyridin-6-yl]piperidine-2,6-dione]	> 500 nM	–
Cn1cnnc1CC1(c2cccc(N3Cc4c(cc(CN5CCC(c6ccc7c(c6)C(=O)N(C6CCC(=O)NC6=O)C7=O)CC5)cc4C(F)(F)F)C3=O)c2)COC1 (stereo not shown) [Example 33, 2-(2,6-dioxopiperidin-3-yl)-5-(1-{[2-(3-{3-[(4-methyl-4H-1,2,4-triazol-3-yl)methyl]oxetan-3-yl}phenyl)-3-oxo-7-(trifluoromethyl)-2,3-dihydro-1H-isoindol-5-yl]methyl}piperidin-4-yl)-2,3-dihydro-1H-isoindole-1,3-dione]	> 500 nM	–
C[C@@H]1C[C@H](CN2CCC(CN3CCC(CN4CCN(c5ccc6c(c5)C(=O)N(C5CCC(=O)NC5=O)C6=O)CC4)CC3)CC2)CN(c2cc3c(c(C(F)(F)F)c2)CN(c2cccc(C4(Cc5nncn5C)COC4)c2)C3=O)C1 (stereo partly drawn) [Example 73, 2-(2,6-dioxopiperidin-3-yl)-5-[4-({1-[(1-{[(3R,5R)-5-methyl-1-[2-(3-{3-[(4-methyl-4H-1,2,4-triazol-3-yl)methyl]oxetan-3-yl}phenyl)-3-oxo-7-(trifluoromethyl)-2,3-dihydro-1H-isoindol-5-yl]piperidin-3-yl]methyl}piperidin-4-yl)methyl]piperidin-4-yl}methyl)piperazin-1-yl]-2,3-dihydro-1H-isoindole-1,3-dione]	5 to 50 nM	35 to 70%
Cn1cnnc1CC(C)(C)c1cccc(N2Cc3c(cc(CN4CCC[C@H](CN5CCN(C[C@H]6CC[C@@H](OC7CCN(c8ccc9c(c8F)CN(C8CCC(=O)NC8=O)C9=O)CC7)CC6)CC5)C4)cc3C(F)(F)F)C2=O)c1 (stereo partly drawn) [Example 164, 3-[4-fluoro-1-oxo-5-(4-{[(1r,4r)-4-[(4-{[(3S)-1-[(2-{3-[2-methyl-1-(4-methyl-4H-1,2,4-triazol-3-yl)propan-2-yl]phenyl}-3-oxo-7-(trifluoromethyl)-2,3-dihydro-1H-isoindol-5-yl)methyl]piperidin-3-yl]methyl}piperazin-1-yl)methyl]cyclohexyl]oxy}piperidin-1-yl)-2,3-dihydro-1H-isoindol-2-yl]piperidine-2,6-dione]	< 5 nM	> 70%
Cn1cnnc1C[C@]1(c2cccc(N3Cc4c(cc(CN5CCN(C[C@H]6CC[C@H](OC7CCN(c8ccnc(C(=O)NC9CCC(=O)NC9=O)c8)CC7)CC6)CC5)cc4C(F)(F)F)C3=O)c2)C[C@H](C#N)C1 (stereo partly shown) [Example 200, N-(2,6-dioxopiperidin-3-yl)-4-(4-{[(1r,4r)-4-({4-[(3-oxo-2-{3-[(1r,3r)-3-cyano-1-[(4-methyl-4H-1,2,4-triazol-3-yl)methyl]cyclobutyl]phenyl}-7-(trifluoromethyl)-2,3-dihydro-1H-isoindol-5-yl)methyl]piperazin-1-yl}methyl)cyclohexyl]oxy}piperidin-1-yl)pyridine-2-carboxamide]	> 500 nM	–
CC1c2nc(N3CCC(O[C@H]4CC[C@H](CN5C[C@@H]6C[C@H]5CN6c5cc6c(c(C(F)(F)F)c5)CN(c5cccc([C@]7(Cc8nncn8C)C[C@H](C#N)C7)c5)C6=O)CC4)CC3)ccc2C(=O)N1C1CCC(=O)NC1=O (stereo partly drawn) [Example 182, (1r,3r)-3-[(4-methyl-4H-1,2,4-triazol-3-yl)methyl]-3-(3-{1-oxo-6-[(1S,4S)-5-{[(1r,4r)-4-({1-[6-(2,6-dioxopiperidin-3-yl)-7-methyl-5-oxo-5H,6H,7H-pyrrolo[3,4-b]pyridin-2-yl]piperidin-4-yl}oxy)cyclohexyl]methyl}-2,5-diazabicyclo[2.2.1]heptan-2-yl]-4-(trifluoromethyl)-2,3-dihydro-1H-isoindol-2-yl}phenyl)cyclobutane-1-carbonitrile]	5 to 50 nM	< 35%
Cn1cnnc1CC1(c2cccc(N3Cc4c(cc(CN5CCN(c6ccc(C(=O)NC7CCC(=O)NC7=O)c(F)c6)CC5)cc4C(F)(F)F)C3=O)c2)COC1 (stereo not shown) [Example 35, N-(2,6-dioxopiperidin-3-yl)-2-fluoro-4-(4-{[2-(3-{3-[(4-methyl-4H-1,2,4-triazol-3-yl)methyl]oxetan-3-yl}phenyl)-3-oxo-7-(trifluoromethyl)-2,3-dihydro-1H-isoindol-5-yl]methyl}piperazin-1-yl)benzamide]	> 500 nM	–
Cn1cnnc1CC1(c2cccc(N3Cc4c(cc(CN5CCC(CCC6CCN(c7ccc8c(c7)C(=O)N(C7CCC(=O)NC7=O)C8=O)CC6)CC5)cc4C(F)(F)F)C3=O)c2)COC1 (stereo not shown) [Example 71, 2-(2,6-dioxopiperidin-3-yl)-5-{4-[2-(1-{[2-(3-{3-[(4-methyl-4H-1,2,4-triazol-3-yl)methyl]oxetan-3-yl}phenyl)-3-oxo-7-(trifluoromethyl)-2,3-dihydro-1H-isoindol-5-yl]methyl}piperidin-4-yl)ethyl]piperidin-1-yl}-2,3-dihydro-1H-isoindole-1,3-dione]	> 500 nM	–

Second part, the compound after the results:

DC50	Dmax	Structure (SMILES)
> 500 nM	–	Cn1cnnc1CC1(c2cccc(-n3cc4ccc(CN5CCN(C[C@H]6CC[C@H](OC7CCN(c8ccc9c(c8F)CN(C8CCC(=O)NC8=O)C9=O)CC7)CC6)CC5)cc4n3)c2)COC1 (stereo partly shown) [Example 207, 3-[4-fluoro-1-oxo-5-(4-{[(1r,4r)-4-[(4-{[2-(3-{3-[(4-methyl-4H-1,2,4-triazol-3-yl)methyl]oxetan-3-yl}phenyl)-2H-indazol-6-yl]methyl}piperazin-1-yl)methyl]cyclohexyl]oxy}piperidin-1-yl)-2,3-dihydro-1H-isoindol-2-yl]piperidine-2,6-dione]
> 500 nM	–	Cn1cnnc1C[C@]1(c2cccc(N3Cc4c(cc(CN5CCN(C[C@H]6CC[C@H](OC7CCN(c8ccc(C9CCC(=O)NC9=O)nc8)CC7)CC6)CC5)cc4C(F)(F)F)C3=O)c2)C[C@H](C#N)C1 (stereo partly shown) [Example 213, (1r,3r)-3-[(4-methyl-4H-1,2,4-triazol-3-yl)methyl]-3-(3-{1-oxo-6-[(4-{[(1r,4r)-4-({1-[6-(2,6-dioxopiperidin-3-yl)pyridin-3-yl]piperidin-4-yl}oxy)cyclohexyl]methyl}piperazin-1-yl)methyl]-4-(trifluoromethyl)-2,3-dihydro-1H-isoindol-2-yl}phenyl)cyclobutane-1-carbonitrile]
> 500 nM	–	Cn1cnnc1C[C@]1(c2cccc(N3Cc4c(cc(CN5CCN(C[C@H]6CC[C@H](OC7CCN(c8ccc(C9CCC(=O)NC9=O)cc8)CC7)CC6)CC5)cc4C(F)(F)F)C3=O)c2)C[C@H](C#N)C1 (stereo partly shown) [Example 206, (1r,3r)-3-[(4-methyl-4H-1,2,4-triazol-3-yl)methyl]-3-(3-{1-oxo-6-[(4-{[(1r,4r)-4-({1-[4-(2,6-dioxopiperidin-3-yl)phenyl]piperidin-4-yl}oxy)cyclohexyl]methyl}piperazin-1-yl)methyl]-4-(trifluoromethyl)-2,3-dihydro-1H-isoindol-2-yl}phenyl)cyclobutane-1-carbonitrile]
> 500 nM	–	CC1c2nc(N3CCC(O[C@H]4CC[C@H](CN5CCN(Cc6cc7c(c(C(F)(F)F)c6)CN(c6cccc(C8(Cc9nncn9C)CCOCC8)c6)C7=O)CC5)CC4)CC3)ccc2C(=O)N1C1CCC(=O)NC1=O (mixture of isomers) [Example 233, rac-3-[7-methyl-5-oxo-2-(4-{[(1r,4r)-4-[(4-{[2-(3-{4-[(4-methyl-4H-1,2,4-triazol-3-yl)methyl]oxan-4-yl}phenyl)-3-oxo-7-(trifluoromethyl)-2,3-dihydro-1H-isoindol-5-yl]methyl}piperazin-1-yl)methyl]cyclohexyl]oxy}piperidin-1-yl)-5H,6H,7H-pyrrolo[3,4-b]pyridin-6-yl]piperidine-2,6-dione]
> 500 nM	–	O=C1CCC(N2Cc3c(ccc(N4CCC(O[C@H]5CC[C@H](CN6CCN(Cc7cc8c(c(C(F)(F)F)c7)CN(c7cccc(C9(Cc%10nnc[nH]%10)COC9)c7)C8=O)CC6)CC5)CC4)c3F)C2=O)C(=O)N1 (stereo partly shown) [Example 197, 3-[4-fluoro-1-oxo-5-(4-{[(1r,4r)-4-[(4-{[3-oxo-2-(3-{3-[(4H-1,2,4-triazol-3-yl)methyl]oxetan-3-yl}phenyl)-7-(trifluoromethyl)-2,3-dihydro-1H-isoindol-5-yl]methyl}piperazin-1-yl)methyl]cyclohexyl]oxy}piperidin-1-yl)-2,3-dihydro-1H-isoindol-2-yl]piperidine-2,6-dione]
< 5 nM	35 to 70%	CCn1cnnc1CC1(c2cccc(N3Cc4c(cc(CN5CCN(C[C@H]6CC[C@H](OC7CCN(c8ccc9c(n8)C(C)N(C8CCC(=O)NC8=O)C9=O)CC7)CC6)CC5)cc4C(F)(F)F)C3=O)c2)COC1 (mixture of isomers) [Example 235, rac-3-[7-methyl-5-oxo-2-(4-{[(1r,4r)-4-[(4-{[2-(3-{3-[(4-ethyl-4H-1,2,4-triazol-3-yl)methyl]oxetan-3-yl}phenyl)-3-oxo-7-(trifluoromethyl)-2,3-dihydro-1H-isoindol-5-yl]methyl}piperazin-1-yl)methyl]cyclohexyl]oxy}piperidin-1-yl)-5H,6H,7H-pyrrolo[3,4-b]pyridin-6-yl]piperidine-2,6-dione]
> 500 nM	–	Cn1cnnc1CC1(c2cccc(-n3cc4ccc(N5CC6(CCN(CC7CCN(c8ccc9c(c8Cl)CN(C8CCC(=O)NC8=O)C9=O)CC7)CC6)C5)cc4n3)c2)COC1 (stereo not shown) [Example 260, 3-{4-chloro-5-[4-({2-[2-(3-{3-[(4-methyl-4H-1,2,4-triazol-3-yl)methyl]oxetan-3-yl}phenyl)-2H-indazol-6-yl]-2,7-diazaspiro[3.5]nonan-7-yl}methyl)piperidin-1-yl]-1-oxo-2,3-dihydro-1H-isoindol-2-yl}piperidine-2,6-dione]
